The values that follow come from patent publication US20240308985A1 (Psy Therapeutics, Inc., priority 2021, published 2024).

This experiment addresses Monoacylglycerol Lipase (MAGL) (Homo sapiens (Human), UniProt Q99685). In words: MAGL inhibition potency (IC50) assay with 4NPA substrate. The class given is biochemical. From the text:
The potency of certain compounds for inhibiting MAGL were obtained using the following assays. The monoacylglycerol lipase inhibitor screening assay kit from Cayman Chemical was used to measure the MAGL potency for the compounds in Table 6 and Table 7. Cayman's Monoacylglycerol Lipase Inhibitor Screening Assay provides a method for screening human MAGL inhibitors. MAGL hydrolyzes 4-nitrophenylacetate resulting in a yellow product, 4-nitrophenol, with an absorbance of 405-412 nm. MAGL Inhibition was measured by the following assay. Monoacylglycerol Lipase (MAGL) inhibition was measured using recombinant MAGL enzyme (aa 2-303 RBC, internal preparation) and the substrate 4-Nitrophenyl acetate (4NPA) (Sigma-Aldrich, N8130). Hydrolysis of the substrate in the presence of the enzyme was measured by absorbance at 405 nm. 10 μL of assay buffer (10 mM Tris pH 7.5, 1 mM EDTA, 0.9% DMSO) was added to a black 384-well non-binding plate with clear bottom (Greiner, 781906) for each reaction. […] DMSO control wells were included for reference. A 10.8 nM (1.8×) MAGL mix in assay buffer was prepared, with 25 μL added to each reaction well, for a final assay concentration of 6 nM. No enzyme wells received 25 μL of buffer. Plate was incubated at room temperature for 30 minutes. 35 mM solution of 4NPA in methanol was prepared daily. A 4.5×4NPA substrate solution was prepared in assay buffer and 10 μL was added to each reaction well, for a final assay concentration of 0.25 mM. Plate was spun for 1 minute at 1000 rpm before measuring absorbance using a CLARIOstar plate reader (BMG Labtech). A kinetic reading at 405 nm was done every minute for 30 minutes. Data was analyzed using the linear slope of the reaction progress curve and the average of the no-enzyme wells (background) was subtracted from the data. The background-subtracted slope data was converted to % activity using the average of wells with enzyme and DMSO vehicle. IC50s were calculated using GraphPad software (Sigmoidal dose response, variable slope equation). […] Table 8 provides potency measurements of MAGL inhibition measured using the Potency Assay of Example 22 above, with the following modifications described in Table C. [table]

Setting [1] is: Method 14: Reaction Biology MAGL enzyme, 6 nM, read-out: MAGL Potency (Detection Method).
[2] abbreviates: Method 2: Cayman Chemical MAGL enzyme, 10 nM, read-out: MAGL Potency (Detection Method).
[3] abbreviates: Method 11: Reaction Biology MAGL enzyme, 25 nM (name: Conc 20), read-out: MAGL Potency (Detection Method).
Where [4] appears, read: Method 6: Reaction Biology MAGL enzyme, 6 nM, read-out: MAGL Potency (Detection Method).
[5] abbreviates: Method 4: Cayman Chemical MAGL enzyme, 15 nM, read-out: MAGL Potency (Detection Method).
Where [6] appears, read: Method 6: Reaction Biology MAGL enzyme, 6 nM, read-out: Potency (MAGL inhibition).
The mark [7] stands for this setting: Method 12: Reaction Biology MAGL enzyme, 15 nM, read-out: MAGL Potency (Detection Method).
Where [8] appears, read: Method 14: Reaction Biology MAGL enzyme, 6 nM, read-out: Potency (MAGL inhibition).

Where two headings read alike, the source gives them in different places.

Chain of Monoacylglycerol Lipase (MAGL) (Q99685 2-303): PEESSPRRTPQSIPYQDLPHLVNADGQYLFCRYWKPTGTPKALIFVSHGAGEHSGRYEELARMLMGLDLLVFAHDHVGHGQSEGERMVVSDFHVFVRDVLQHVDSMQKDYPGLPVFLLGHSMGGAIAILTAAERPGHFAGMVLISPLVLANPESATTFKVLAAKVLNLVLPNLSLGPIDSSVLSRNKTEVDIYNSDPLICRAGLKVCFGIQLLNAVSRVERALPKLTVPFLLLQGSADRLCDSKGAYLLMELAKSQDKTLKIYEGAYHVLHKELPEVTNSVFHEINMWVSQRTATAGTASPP

In the case of `O=C(c1cc(O)ccc1F)N1CC2(CC(c3nnc(-c4ccccc4Cl)o3)C2)C1` [Compound 377, {6-[5-(o-chlorophenyl)-1,3,4-oxadiazol-2-yl]-2-aza-2-spiro[3.3]heptyl}(2-fluoro-5-hydroxyphenyl)methanone], the IC50 under setting [1] lay in the range of 500 to 1000 nM.
As to `Cc1ccccc1NC(=O)C1CC2(C1)CN(C(=O)c1cc(O)ccc1F)C2` [Compound 186, N-o-tolyl-2-(2-fluoro-5-hydroxybenzoyl)-2-aza-6-spiro[3.3]heptanecarboxamide], the IC50 under setting [2] lay in the range of 1000 to 5100 nM.
Take `Cc1ccc(F)cc1-c1cc(C)n(C2CC3(C2)CN(C(=O)c2ccc(F)cc2OCF)C3)n1` [Compound 437, (4-fluoro-2-fluoromethoxyphenyl){6-[3-(5-fluoro-2-tolyl)-5-methyl-1-pyrazolyl]-2-aza-2-spiro[3.3]heptyl}methanone]: under setting [3], the IC50 fell in the range of 1000 to 5100 nM.
In the case of `Cc1cc(-c2cc(F)ccc2C)n(C2CC3(C2)CN(C(=O)c2cc(O)ccc2F)C3)n1` [Compound 415, (2-fluoro-5-hydroxyphenyl){6-[5-(5-fluoro-2-tolyl)-3-methyl-1-pyrazolyl]-2-aza-2-spiro[3.3]heptyl}methanone], under setting [4], the IC50 lay in the range of 50 to 150 nM.
`CCOc1cc(F)ccc1C(=O)N1CC2(CC(C(=O)N(CC)c3ccccc3C)C2)C1` [Compound 203, N-ethyl-N-o-tolyl-2-(2-ethoxy-4-fluorobenzoyl)-2-aza-6-spiro[3.3]heptanecarboxamide]: the IC50 under setting [5] lay in the range of 150 to 500 nM.
Regarding `Cc1cc(-c2cc(F)ccc2C)n(C2CC3(C2)CN(C(=O)c2ccc(F)cc2OC(F)F)C3)n1` [Compound 428], the IC50 under setting [4] lay in the range of 150 to 500 nM.
For the compound `O=C(c1ccc(F)cc1OC1CC1)N1CC2(CC(n3nc(C(F)(F)F)cc3-c3ccccc3C(F)(F)F)C2)C1` [Compound 424, (2-cyclopropoxy-4-fluorophenyl)(6-(3-(trifluoromethyl)-5-(2-(trifluoromethyl)phenyl)-1H-pyrazol-1-yl)-2-azaspiro[3.3]heptan-2-yl)methanone], the IC50 under setting [6] is more than 10000 nM.
Take `Cc1cn(C2CC3(C2)CN(C(=O)c2cc(O)ccc2F)C3)nc1-c1ccccc1F` [Compound 417, (2-fluoro-5-hydroxyphenyl){6-[3-(o-fluorophenyl)-4-methyl-1-pyrazolyl]-2-aza-2-spiro[3.3]heptyl}methanone]: the IC50 under setting [4] is less than 50 nM.
For `COc1cc(F)ccc1C(=O)N1CC2(CC(n3nc(-c4cc(F)ccc4C)cc3C(F)(F)F)C2)C1` [Compound 458, (4-fluoro-2-methoxyphenyl){6-[3-(5-fluoro-2-tolyl)-5-(trifluoromethyl)-1-pyrazolyl]-2-aza-2-spiro[3.3]heptyl}methanone], the IC50 under setting [3] lay in the range of 1000 to 5100 nM.
In the case of `CCOc1ccccc1C(=O)N1CC2(CC(c3cc(C)nn3-c3ccccc3C)C2)C1` [Compound 145, (2-ethoxyphenyl)(6-(3-methyl-1-(o-tolyl)-1H-pyrazol-5-yl)-2-azaspiro[3.3]heptan-2-yl)methanone], the IC50 under setting [2] lay in the range of 1000 to 5100 nM.
Regarding `CCOc1cc(F)ccc1C(=O)N1CC2(CC(C(=O)N(C)c3ccccc3Cl)C2)C1` [Compound 206, N-o-chlorophenyl-N-methyl-2-(2-ethoxy-4-fluorobenzoyl)-2-aza-6-spiro[3.3]heptanecarboxamide], the IC50 under setting [5] fell in the range of 1000 to 5100 nM.
For `Cc1ccccc1-c1nnc(C2CC3(C2)CN(C(=O)c2cc(O)ccc2F)C3)o1` [Compound 378, (2-fluoro-5-hydroxyphenyl){6-[5-(o-tolyl)-1,3,4-oxadiazol-2-yl]-2-aza-2-spiro[3.3]heptyl}methanone], under setting [1], the IC50 was in the range of 500 to 1000 nM.
For `O=C(c1cc(O)ccc1F)N1CC2(CC(n3ccc(-c4ccccc4C(F)(F)F)n3)C2)C1` [Compound 525, (2-fluoro-5-hydroxyphenyl)(6-{3-[o-(trifluoromethyl)phenyl]-1-pyrazolyl}-2-aza-2-spiro[3.3]heptyl)methanone], under setting [7], the IC50 is less than 50 nM.
In the case of `Cc1ccccc1-c1ccnn1C1CC2(C1)CN(C(=O)c1cc(O)ccc1F)C2` [Compound 405], the IC50 under setting [6] was more than 10000 nM.
For the compound `Cc1cc(C2CC3(C2)CN([C@@H]2CCOc4ccccc42)C3)n(-c2ccccc2C)n1` [Compound 153], where the note is “Method 2: Cayman Chemical MAGL enzyme, 10 nM, read-out: Potency (MAGL inhibition)”, the IC50 is more than 10000 nM.
On to `Cc1cc(C2CC3(C2)CN(C(=O)c2ccc4c(c2)OCC4)C3)n(-c2ccccc2C)n1` [Compound 402], for which the IC50 under setting [8] is more than 10000 nM.
In the case of `Cc1cc(C2CC3(C2)CN(C(=O)c2cc(O)ccc2Cl)C3)n(-c2ccccc2C)n1` [Compound 140, (2-chloro-5-hydroxyphenyl) (6-(3-methyl-1-(o-tolyl)-1H-pyrazol-5-yl)-2-azaspiro [3.3]heptan-2-yl) methanone], the IC50 under setting [2] lay in the range of 50 to 150 nM.
As to `CCOc1cc(F)ccc1C(=O)N1CC2(CC(n3nc(C)cc3-c3cc(F)ccc3C)C2)C1` [Compound 462, (2-ethoxy-4-fluorophenyl){6-[5-(5-fluoro-2-tolyl)-3-methyl-1-pyrazolyl]-2-aza-2-spiro[3.3]heptyl}metbanone], under setting [3], the IC50 lay within 1000 to 5100 nM.
As to `O=C(c1ccc(F)cc1OC1CC1)N1CC2(CC(n3ncc(C(F)(F)F)c3-c3ccccc3F)C2)C1` [Compound 523, (2-cyclopropoxy-4-fluorophenyl) {6-[5-(o-fluorophenyl)-4-(trifluoromethyl)~1-pyrazolyl]-2-aza-2-spiro[3.3]heptyl}methanone], under setting [7], the IC50 fell in the range of 1000 to 5100 nM.
Take `CCOc1cc(F)ccc1C(=O)N1CC2(CC(C(=O)N(C)c3ccccc3C)C2)C1` [Compound 187, 2-(2-Ethoxy-4-fluorobenzoyl)-N-Methyl-N-(o-tolyl)-2-azaspiro [3.3] heptane-6-carboxamide]: the IC50 under setting [2] is 150 to 500 nM and the IC50 (Methods 2, 3, read-out: MAGL Potency (Detection Method)) is 1000 to 5100 nM.
For the compound `Cc1ccccc1-c1nn(C2CC3(C2)CN(C(=O)c2ccc(F)cc2OC2CC2)C3)cc1C` [Compound 447, (2-cyclopropoxy-4-fluorophenyl){6-[4-methyl-3-(o-tolyl)-1-pyrazolyl]-2-aza-2-spiro[3.3]heptyl}methanone], the IC50 under setting [4] lay in the range of 150 to 500 nM.
Turning to `Cc1ccc(F)c(-c2nn(C3CC4(C3)CN(C(=O)c3cc(O)ccc3F)C4)cc2C(F)(F)F)c1` [Compound 475, (2-fluoro-5-hydroxyphenyl){6-[3-(2-fluoro-5-tolyl)-4-(trifluoromethyl)-1-pyrazolyl]-2-aza-2-spiro[3.3]heptyl}methanone], the IC50 under setting [7] is less than 50 nM.
For `Cc1cc(C2CC3(C2)CN(C(=O)c2cc4c(cc2F)CCO4)C3)n(-c2ccccc2C)n1` [Compound 368], under setting [8], the IC50 is more than 10000 nM.
For `O=C(c1cc(O)ccc1F)N1CC2(CC(n3cc(C4CC4)c(-c4ccccc4Cl)n3)C2)C1` [Compound 445], the IC50 under setting [6] is more than 10000 nM.
As to `Cc1ccccc1-c1c(C)cnn1C1CC2(C1)CN(C(=O)c1cc(O)ccc1F)C2` [Compound 373, (2-fluoro-5-hydroxyphenyl){6-[4-methyl-5-(o-tolyl)-1-pyrazolyl]-2-aza-2-spiro[3.3]heptyl}methanone], under setting [1], the IC50 was 150 to 500 nM.
In the case of `Cc1cn(C2CC3(C2)CN(C(=O)c2cc(O)ccc2F)C3)nc1-c1cc(F)ccc1F` [Compound 477, {6-[3-(2,5-difluorophenyl)-4-methyl-1-pyrazolyl]-2-aza-2-spiro[3.3]heptyl}(2-fluoro-5-hydroxyphenyl)methanone], the IC50 (Method 13: Reaction Biology MAGL enzyme, 12 nM, read-out: MAGL Potency (Detection Method)) is less than 50 nM.
`Cc1cnn(C2CC3(C2)CN(C(=O)c2cc(O)ccc2F)C3)c1-c1ccccc1C(F)(F)F` (atropisomer, axis not shown; (M)) [Compound 410, 4-fluoro-3-{6-[(4M)-4-methyl-5-[2-(trifluoromethyl)phenyl]-1H-pyrazol-1-yl]-2-azaspiro[3.3]heptane-2-carbonyl}phenol]: under setting [4], the IC50 lay within 50 to 150 nM.
For the compound `Cc1ccccc1-c1cc(C)n(C2CC3(C2)CN(C(=O)c2cc(O)ccc2F)C3)n1` [Compound 442], under setting [6], the IC50 is more than 10000 nM.
On to `CCOc1cc(F)ccc1C(=O)N1CC2(CC(n3nc(-c4ccccc4C)cc3C)C2)C1` [Compound 461, (2-ethoxy-4-fluorophenyl){6-[5-methyl-3-(o-tolyl)-1-pyrazolyl]-2-aza-2-spiro[3.3]heptyl}methanone], for which the IC50 under setting [3] lay in the range of 500 to 1000 nM.
On to `COc1cc(F)ccc1C(=O)N1CC2(CC(c3cc(C)nn3-c3ccccc3C)C2)C1` [Compound 142, (4-fluoro-2-methoxyphenyl)(6-(3-methyl-1-(o-tolyl)-1H-pyrazol-5-yl)-2-azaspiro[3.3]heptan-2-yl)methanone], for which the IC50 under setting [2] lay within 500 to 1000 nM.
